In article PMC5906549, “Cathelicidin-Derived Antimicrobial Peptides Inhibit Zika Virus Through Direct Inactivation and Interferon Pathway” (Frontiers in Immunology, 2018):
Peptide text beside a SMILES is read from it.

Assays:
ZIKV strain MR766 [1] = assay: Intracellular ZIKV RNA in infected human fetal astrocytes, peptide pre-treatment (real-time RT-PCR); format: cell-based, Zika virus; conditions: for Dose dependence of intracellular ZIKV RNA decrease / Intracellular ZIKV RNA, % of the untreated ZIKV group: human fetal astrocytes, 48 h; for Dose dependence of intracellular ZIKV RNA decrease: pre-treatment 0.4 to 10 µM, ZIKV MOI 0.5; for Reduction of ZIKV RNA levels: astrocytes, 10 µM, at 48 h; for Intracellular ZIKV RNA, % of the untreated ZIKV group: 2 h pre-treatment, ZIKV MOI 0.5, re-treated at 24 h, normalized to GAPDH, N = 3
Description: Human fetal astrocytes were derived from a single-cell isolation process of fetal brain tissues as previously described ([25], [26]). Briefly, dissociated brain tissue was incubated with 0.25% trypsin for 30 min, followed by neutralization with 10% fetal bovine serum (FBS), and further dissociated by trituration. The single-cell suspension was cultured as adherent cells in DMEM/F12 (Thermo Fisher Scientific, Waltham, MA, USA), supplemented with 10% FBS, penicillin (50 units/mL), and streptomycin (50 µg/mL) (Thermo Fisher Scientific). […] Vero cells (ATCC, CCL-81), an African green monkey kidney cell line, were maintained in Dulbecco’s Modified Eagle Medium (DMEM) with 5% FBS. Experiments with ZIKV were performed exclusively inside a BioSafety Level 2 (laboratory). All procedures utilized in this study were approved by the Institutional Biosafety Committee (IBC 16-05-013BL2) and followed biosafety level II practices as shown in National Institutes of health (NIH) Guideline Appendix G-II-B. ZIKV strain MR766 (Uganda, 1947) was obtained from ZeptoMetrix Corp., Buffalo, NY, USA, and propagated in Vero cells. ZIKV infection of the Vero cells and fetal astrocytes was previously characterized ([27]) and all infections in the current studies were at the MOI of 0.5.
Total mRNA was isolated with TRIzol Reagent (Thermo Fisher Scientific) and RNeasy Mini Kit (QIAGEN Inc., Valencia, CA, USA) following the manufacturer’s recommendations. Two real-time RT-PCR methods were used for the current studies. First, SYBR Green-based RT-PCR assay was used to determine intracellular ZIKV RNA in Vero cells. For this assay, reverse transcription was performed using Verso cDNA synthesis Kit (Thermo Fisher Scientific) and 1 µg of total RNA in a 15-µL final volume. The RT-PCR analyses were performed using 7.5-µL SYBR Green PCR Master Mix (Thermo Fisher Scientific) with 0.5-µL cDNA, 1.5-µL H2O, 5.5-µL oligonucleotide primer pairs at 10 µM. […] GG-3. PCR program: 1, 50°C for 2 min; 2, 95°C for 2 min; 3, 95°C for 15 s; 4, specific annealing temperature for 15 s; 5, 72°C for 1 min. Steps 2–4 were repeated 40 times. All samples were amplified in triplicate for analysis. Relative ZIKV RNA levels were determined and standardized with a GAPDH internal control using comparative ΔΔCT method ([35]). Second, TaqMan-based RT-PCR assay was used to determine intracellular ZIKV RNA and other gene expressions in Figures 3–6 and extracellular ZIKV RNA in Figure 3. The TaqMan assay was performed in a StepOne^TM Real-Time PCR system (Thermo Fisher Scientific). Primers used for TaqMan real-time RT-PCR were all from the Thermo Fisher Scientific, which included ZIKV (forward sequence: 5-[…]-3, reverse sequence: 5- […]-3, and probe sequence: 5′-[…]-3), IFN-α2 (Hs00265051_s1), IFN-β1 (Hs01077958_s1), eukaryotic 18-s rRNA (Hs99999901_s1), β-actin (Hs99999903_m1), and GAPDH (Catalog number: 4310884E). Relative ZIKV mRNA levels were determined and standardized with a GAPDH or 18-s rRNA endogenous control using comparative ΔΔCT method ([35]). […] For ZIKV in supernatants, RNA was extracted from the supernatants through TRIzol™ LS Reagent (Thermo Fisher Scientific, 10296028) following the manufacturer’s manual. […] Quantitative genomic RNA from ZIKV (NR-1838DQ, ATCC) was used as a standard to calculate viral copies.

ZIKV strain MR766 [2] = assay: ZIKV virion levels in astrocyte supernatants, plaque-forming assay on Vero cells; format: cell-based, Zika virus; conditions: human fetal astrocytes; peptide 0.4 to 10 µM pre-treatment; supernatants titrated on Vero cells
Description: (A) Human fetal astrocytes were treated with doses of the selected peptides ranging from 1 to 50 µM. After 24 h, the cultures were washed and treated with same doses of peptides in fresh medium for another 24 h. Cell viability was determined by a colorimetric MTS assay. Results shown are the averages ±SD of experiments performed in triplicate. Data were analyzed by nonlinear regression and assessed the EC50 for each of the antimicrobial peptides. (B–E) Astrocytes were treated with doses of antimicrobial peptides ranging from 0.4 to 10 µM for 2 h then infected with ZIKV at the MOI of 0.5. After 24 h, the cultures were washed and treated with same doses of antimicrobial peptides in fresh medium for another 24 h. At the experimental endpoint, intracellular ZIKV RNA (B) was determined through real-time RT-PCR in total cellular RNA. Data were normalized to GAPDH and presented as fold change (in log scale) compared with ZIKV group. Extracellular ZIKV RNA [(C), in log scale] was determined through real-time RT-PCR using total RNA isolated from cell-free supernatants. ZIKV virion levels (in log scale) were determined by adding cell-free culture supernatants to Vero cells and overlaid with Agar gel in viral PFA (D). Viral plaques were manually counted and calculated as PFU/mL (E). * p < 0.05, ** p < 0.01, and *** p < 0.001, as compared with the ZIKV group without peptide treatment (ANOVA, N = 3).

SMILES | Dose dependence of intracellular ZIKV RNA decrease (ZIKV strain MR766 [1]) | Reduction of ZIKV RNA levels (ZIKV strain MR766 [1]) | Intracellular ZIKV RNA, % of the untreated ZIKV group (ZIKV strain MR766 [1]; peptide 2 µM) [%] | Intracellular ZIKV RNA, % of the untreated ZIKV group (ZIKV strain MR766 [1]; peptide 10 µM) [%] | ZIKV virions (PFU/mL) in supernatants (ZIKV strain MR766 [2])
CC[C@H](C)[C@H](NC(=O)[C@H](CCCNC(=N)N)NC(=O)[C@H](CCC(N)=O)NC(=O)[C@@H](NC(=O)[C@@H](NC(=O)[C@@H](N)CCCNC(=N)N)[C@@H](C)CC)C(C)C)C(=O)N[C@@H](CCCCN)C(=O)N[C@@H](CC(=O)O)C(=O)N[C@@H](Cc1ccccc1)C(=O)N[C@@H](CC(C)C)C(=O)O [RI-10, reference compound] (H-RIVQRIKDFL-OH; N-terminus and C-terminus assumed) | but not RI-10, decreased intracellular ZIKV RNA | – | – | – | –
CC[C@H](C)[C@H](NC(=O)[C@H](CCCCN)NC(=O)[C@H](CCCCN)NC(=O)[C@H](Cc1ccccc1)NC(=O)[C@H](CC(C)C)NC(=O)[C@H](CCCCN)NC(=O)[C@H](CCCCN)NC(=O)[C@H](Cc1ccccc1)NC(=O)[C@H](CCCCN)NC(=O)[C@H](CCCCN)NC(=O)[C@H](CCCNC(=N)N)NC(=O)[C@H](Cc1ccccc1)NC(=O)[C@H](CCCNC(=N)N)NC(=O)[C@H](CCCCN)NC(=O)[C@H](Cc1ccccc1)NC(=O)[C@H](CCCNC(=N)N)NC(=O)CN)C(=O)N[C@@H](CO)C(=O)O [BMAP-18] (H-GRFKRFRKKFKKLFKKIS-OH; N-terminus and C-terminus assumed) | decreased intracellular ZIKV RNA in a dose-dependent manner | > 95% | 15 | 4 | ZIKV virions were reduced
CC[C@H](C)[C@H](NC(=O)[C@H](CCCNC(=N)N)NC(=O)[C@H](CCC(N)=O)NC(=O)[C@@H](NC(=O)[C@@H](NC(=O)[C@H](CCCNC(=N)N)NC(=O)[C@H](CCCCN)NC(=O)[C@H](Cc1ccccc1)NC(=O)CN)[C@@H](C)CC)C(C)C)C(=O)N[C@@H](CCCCN)C(=O)N[C@@H](CC(=O)O)C(=O)N[C@@H](Cc1ccccc1)C(=O)N[C@@H](CC(C)C)C(=O)N[C@@H](CCCNC(=N)N)C(=O)N[C@@H](CC(N)=O)C(=O)N[C@@H](CC(C)C)C(=O)N[C@H](C(N)=O)C(C)C [GF-17] (H-GFKRIVQRIKDFLRNLV-NH2; N-terminus and C-terminus assumed) | decreased intracellular ZIKV RNA in a dose-dependent manner | over 99% | 46 | 1 | ZIKV virions were reduced
